Measurements taken from patent US11793782B2, “Therapeutic agents for neurodegenerative diseases” (priority 2017, dated 2023).

What was measured:
[1] = test system: NPC Chinese Hamster Ovary (CHO) cells; assay: Relative lysosomal volume via LysoTracker, NPC CHO cells; assay type: cell-based; details: 1 mM, 72 hours, p<0.01 versus untreated NPC1-null
Source text: Relative lysosomal volume was quantified via LysoTracker.

[2] = test system: downbeat nystagmus patients; assay: Case studies, downbeat nystagmus patients; assay type: in vivo, human; details: downbeat nystagmus Patient 1; 10 mg twice daily for four weeks
Source text: The patient was diagnosed with downbeat nystagmus: the patient was severely impaired by blurred vision (oscillopsia) due to the nystagmus, and experienced difficulties while reading and writing. The patient's visual acuity was: right 0.75, left 0.67, binocular 0.83, and the downbeat nystagmus was documented by video-oculography. […] The patient could partially suppress the nystagmus by visual fixation, as evaluated using a target center (dot presented in the center of a display for 30 seconds, FIG. 13A) and in complete darkness using goggles covered with special glasses for 45 seconds (FIG. 13B). The results (median of slow phase velocity, SPV) were as follows: Target Center-horizontal: −0.02°/s, vertical: 2.41°/s; Complete Darkness-horizontal: 0.05°/s, vertical: 3.27°/s (FIG. 13C).

[3] = test system: downbeat nystagmus patients; assay: Case studies, downbeat nystagmus patients; assay type: in vivo, human; details: downbeat nystagmus Patient 2
[4] = test system: corticobasal syndrome patient; assay: Case study, corticobasal syndrome; assay type: in vivo, human
Experimental: Gait analysis was performed before treatment commenced.

[5] = test system: Lewy Body dementia patient; assay: Case study, Lewy Body dementia; assay type: in vivo, human; details: Levodopa 100 mg 4× daily and Quetiapin 25 mg at night
Experimental: The patient started taking acetyl-leucine (3 g/day for one week; 5 g/day thereafter) and was evaluated after four weeks. […] Medication was reduced to 3 g/day, and the patient was instructed to stop medication about two weeks later.

[6] = test system: MSA-P patients; assay: Case studies, multiple system atrophy Parkinson type (MSA-P) patients; assay type: in vivo, human; details: MSA-P Patient 1; 100/25 mg 3×daily
[7] = test system: frontotemporal dementia with parkinsonism patient; assay: Case study, frontotemporal dementia with parkinsonism; assay type: in vivo, human; details: frontotemporal dementia with parkinsonism patient; treatment with L-Dopa and Ropinirol
Source text: After approximately one month of acetyl-leucine treatment, medication was stopped and the patient was re-examined 13 days later.

[8] = test system: restless leg syndrome patients; assay: Case studies, restless legs syndrome (IRLS score); assay type: in vivo, human
Source text: A widely reported rating scale known as the International Restless Leg Syndrome Study Group Rating Scale (“IRLS”) was developed by the International Restless Legs Syndrome Study Group (“IRLSSG”) (http://www.irlssg.org/) (Walters et al., Validation of the International Restless Legs Syndrome Study Group rating scale for restless legs syndrome. Sleep medicine. 2003 Apr. 1; 4(2):121-32). The IRLS is a 10-item scale with scores ranging from 0 (no symptoms) to 40. Scores >30 are considered very severe, severe (Score 21-30), moderate (scores 11-20) and ≤10, mild. Use of the scale is common for clinical assessment, research and therapeutic trials with RLS. In one embodiment, treatment with leucine, acetyl-leucine, or a pharmaceutically acceptable salt thereof as described herein decreases the subject's International Restless Leg Syndrome Study Group Rating Scale (“IRLS”) compared to a baseline. In one embodiment, the IRLS is reduced compared to baseline by at least 10%, at least 20%, at least 30%, at least 40%, or at least 50%. In one embodiment, the IRLS is reduced by at least 60%, at least 70%, at least 80%, at least 90%, or 100%.
The patient in this case study was a person showing proximal weakness of the so lower limb. […] Upon consultation, they reported no sensory symptoms but complained of a restless leg syndrome at night and during resting periods of the day, occurring over the course of the last two years. Pre-treatment with dopamine agonist were without symptom relief. Serum creatine kinase activity was only mildly elevated at up to 400 IU/L. The patient was evaluated using the RLS diagnostic index (RLS-DI) (see Walters et al., Sleep Med 2003; 4(2):121-132;). The patient's International Restless Legs Syndrome Rating Scale score (IRLS) was 36, and thus a severe RLS was diagnosed. […] Re-introduction of the treatment re-declined the score to 8 after 2 weeks. Continuation of treatment over more than 22 weeks stabilized the IRLS score at 8.
The patient in this case study was a person showing proximal weakness of the lower limb. […] Upon consultation, they reported no sensory symptoms but complained of a restless leg syndrome at night and during resting periods of the day, occurring over the course of the last eight years. […] Serum creatine kinase activity was mildly elevated at 300 IU/L. Iron measurements and all additional lab investigations were normal. The patient was evaluated using the RLS-DI and the patient's IRLS was 32, and thus a moderate to severe RLS was diagnosed. […] Continuation of treatment over more than 28 weeks stabilized the IRLS score at 8.
The patient in this case study was a person showing mild proximal weakness of the upper and lower limbs slowly progressive. The patient had been diagnosed (genetically confirmed) with McArdle myopathy about 16 years ago. Upon consultation, they reported no sensory symptoms but complained about a severe fatigue and reduced stamina. The patient further reported a restless leg syndrome at night and during resting periods of the day, occurring over the course of the last 12 years. […] Serum creatine kinase activity was mildly elevated at 200 IU/L; however, the patient had 5 episodes of rhabdomyolysis during the past 20 years. Repeated iron measurements and all additional lab investigations were normal. The patient was evaluated using the RLS-DI and the patient's IRLS was 34, and thus a severe RLS was diagnosed. […] Continuation of treatment over more than 30 weeks stabilized the IRLS score at 10. In addition, the patient's fatigue declined (Fatigue Severit Scale: 9 (minimum) to 63 (maximum)) from 53 to 28.

[9] = test system: MSA-P patients; assay: Case studies, multiple system atrophy Parkinson type (MSA-P) patients; assay type: in vivo, human; details: MSA-P Patient 3
Source text: Medication was stopped. […] The patient evaluated after one month on acetyl-DL-leucine. […] Episodes of mental confusion completely disappeared. The patient's cognitive structure seemed much clearer and straighter. […] The patient's spouse supported continuing the medication.

[10] = test system: progressive supranuclear palsy patients; assay: Case studies, progressive supranuclear palsy patients; assay type: in vivo, human
Experimental: After 27 days of acetyl-leucine treatment, medication was stopped and the patient was re-examined 60 days later. […] Gait analysis was performed before treatment commenced. […] Gait analysis was performed before treatment commenced. After 17 days of treatment, medication was stopped and the patient was re-examined 4 days later. […] Gait analysis was performed before treatment commenced. After three weeks of treatment, medication was stopped and the patient was re-examined.

[11] = test system: ALS patients; assay: Case studies, amyotrophic lateral sclerosis (ALS) patients; assay type: in vivo, human; details: ALS Patient 1; medication started around the time of ALS diagnosis
Source text: The results were documented by video.

[12] = test system: rat model of an acute unilateral labyrinthectomy; details: Zwergal et al. (2016); Gunther et al. (2015); cited from earlier work

In the case of `CC(C)CC(N)C(=O)O` (racemic) [DL-leucine], the “Lysosomal volume (LysoTracker)” value [1] is reported as “significantly reduced lysosomal volume”.
With `Nc1ccncc1` [4-aminopyridine, reference compound] the Clinical response [2] was “did not give rise to any benefit” and the Clinical response [3] was “did not benefit”.
In the case of `CC(C)C[C@@H](N)C(=O)O` [D-leucine], the “Lysosomal volume (LysoTracker)” value [1] is reported as “significantly reduced lysosomal volume”.
In the case of `N[C@@H](Cc1ccc(O)c(O)c1)C(=O)O` [L-Dopa, reference compound], the Clinical response [4] is reported as “no improvement”, the Clinical response [5] is reported as “improved the symptomatology” and the Clinical response [6] is reported as “discreet Levodopa response”. For the same molecule, the Clinical response [7] was “little improvement”, the “Symptom relief (pre-treatment)” value ([8]; RLS Patient 2) was “without sustained symptom relief” and the “Symptom relief (pre-treatment)” value ([8]; RLS Patient 3) was “without sustained symptom relief”. The Tolerability [9] was “suspended due to side effects”, the Clinical response ([10]; PSP Patient 1) was “little improvement” and the Clinical response ([10]; PSP Patient 2) was “no levodopa response”. For the same molecule, the Clinical response ([10]; PSP Patient 3) was “no levodopa response” and the Clinical response ([10]; PSP Patient 4) was “slight levodopa response”.
With `CC(C)C[C@H](N)C(=O)O` [L-leucine] the “Lysosomal volume (LysoTracker)” value [1] was “significantly reduced lysosomal volume”.
In the case of `OCCOCCN1CCN(C2=Nc3ccccc3Sc3ccccc32)CC1` [Quetiapin, reference compound], the Clinical response [5] is reported as “improved the symptomatology”.
With `Nc1nc2ccc(OC(F)(F)F)cc2s1` [Riluzol, reference compound] the Clinical symptomatology [11] was “clinical symptomatology remained unchanged”.
In the case of `CCCN(CCC)CCc1cccc2c1CC(=O)N2` [Ropinirol, reference compound], the Clinical response [7] is reported as “little improvement”.
For `CC(=O)N[C@H](CC(C)C)C(=O)O` [acetyl-D-leucine], the “Lysosomal volume (LysoTracker)” value [1] was “significantly reduced lysosomal volume”.
In the case of `CC(=O)N[C@@H](CC(C)C)C(=O)O` [acetyl-L-leucine], the “Effect on postural compensation” value [12] is given as “significant effect” and the “Lysosomal volume (LysoTracker)” value [1] is given as “significantly reduced lysosomal volume”.
In the case of `CC(C)C[C@H](CN)CC(=O)O` [pregabaline, reference compound], the “Symptom relief (pre-treatment)” value ([8]; RLS Patient 2) is reported as “without sustained symptom relief” and the “Symptom relief (pre-treatment)” value ([8]; RLS Patient 3) is reported as “without sustained symptom relief”.
